Assays:
rhesus H3 receptor = assay: GTPγS radioligand binding assay: inhibition of rhesus H3 constitutive functional activity in cell membranes (inverse agonism); assay type: biochemical, rhesus monkey (Macacca Mulatta); parameters: concentration or dose not given beside the values; settings: negative value = below basal level
Method: (§1) Rhesus H3 membranes were prepared from the Flp-In T-REx 293 Cell Line (Invitrogen) stably transfected with pcDNA5/FRT/TO (Invitrogen) containing the rhesus monkey (Macacca Mulatta) 445 amino acid H3 receptor. (Genbank #AY231164). Stably transfected cultures were amplified in tissue culture flasks by standard tissue culture methods and induced to express rhesus H3 by exposure to 500 ng/ml tetracycline (Cellgro) for 24 hours. After induction, cells were dissociated from flasks utilizing Cell Stripper (Cellgro). Cells were centrifuged (1K×g, 5 min) and pellet frozen in an ethanol-dry ice bath to disrupt cell membranes. Frozen cell pellet was re-suspended in 5 mM HEPES (pH 7.4, Invitrogen) at 10 ml/1000 cm2 of harvested cells. The cell suspension was drawn through an 18 gauge needle (2-3×) followed by a 23 gauge needle (2-3×) to further disrupt cell membranes. The cell suspension was centrifuged (40K×g, 30 min). Cell membrane pellet was re-suspended in 5 mM HEPES (pH 7.4, Invitrogen) at a final protein concentration of 10 mg/ml. Rhesus H3 membranes were stored under liquid nitrogen prior to use in [3H]-Methylhistamine and GTP S radioligand binding assays.

[1] = molecular target: T1, rhesus (Macacca Mulatta) H3 receptor (Macaca mulatta, UniProt Q865E1); assay: Rhesus H3 radioligand binding assay ([3H]-methylhistamine displacement, WGA SPA beads); parameters: species or system rhesus monkey (Macacca Mulatta); settings: [3H]-methylhistamine 2 nM; membranes of Flp-In T-REx 293 cells expressing rhesus H3; Cheng-Prusoff
T1 construct: pcDNA5/FRT/TO (Invitrogen) containing the rhesus monkey (Macacca Mulatta) 445 amino acid H3 receptor
T1 sequence (Q865E1 1-445): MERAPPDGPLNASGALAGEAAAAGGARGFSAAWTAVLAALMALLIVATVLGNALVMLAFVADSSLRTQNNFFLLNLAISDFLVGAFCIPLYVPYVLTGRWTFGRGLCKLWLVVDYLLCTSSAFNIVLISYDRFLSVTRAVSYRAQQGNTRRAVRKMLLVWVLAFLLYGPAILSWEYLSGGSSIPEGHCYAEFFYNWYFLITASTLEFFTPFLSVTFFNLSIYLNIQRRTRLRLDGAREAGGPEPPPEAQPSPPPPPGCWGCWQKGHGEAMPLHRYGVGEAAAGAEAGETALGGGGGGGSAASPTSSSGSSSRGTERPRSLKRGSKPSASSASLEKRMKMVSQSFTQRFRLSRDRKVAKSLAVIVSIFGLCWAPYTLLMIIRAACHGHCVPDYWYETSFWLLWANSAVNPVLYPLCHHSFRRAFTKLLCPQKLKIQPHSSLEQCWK
Method: as §1
Rhesus H3 radioligand binding assay was performed using rhesus H3 receptor membranes (prepared as described above), [3H]-Methylhistamine (Perkin Elmer) and WGA SPA beads (wheat germ agglutinin scintillation proximity assay) beads (Amersham). The assay was performed in 96-well Opti-Plates (Packard). Each reaction contained 50 μl rhesus H3 membranes (20-30 μg total protein), 50 μl WGA SPA beads (0.1 μg) and 50 μl of 83 Ci/mmol [^3H]-Methylhistamine (final concentration 2 nM) and 50 μl of tested compound. The compounds of this invention and/or vehicle were diluted with binding buffer from 10 mM DMSO stocks. Assay plates were sealed with TopSeal (Perkin Elmer) and mixed on shaker (25° C., 1 hour). Assay plates were read on TopCount scintillation counter (Packard). Results were analyzed by Hill transformation and Ki values were determined by Cheng-Prusoff equation.

SMILES | Ki [1] [nM] | Inverse Agonism: % inhibition of Basal GTPγS binding in Rhesus H3 (rhesus H3 receptor) [%]
Cc1cc(N2CC[C@H](N3CCC[C@H]3C)C2)ccc1N1CCCC2(CCOCC2)C1=O [Example 28, 2-[2-Methyl-4-((2R,3′S)-2-methyl-[1,3′]bipyrrolidinyl-1′-yl)-phenyl]-9-oxa-2-aza-spiro[5.5]undecan-1-one] | 13 | −13
Cc1cc(N2CC[C@@H](N3CCC[C@H]3C)C2)ccc1N1CCC2(CCOCC2)C1=O [Example 29, 2-[2-Methyl-4-((2R,3′R)-2-methyl-[1,3′]bipyrrolidinyl-1′-yl)-phenyl]-8-oxa-2-aza-spiro[4.5]decan-1-one] | 28 | −28
Cc1cc(N2CCC(N3CCCC3C)C2)ccc1N1CCC2(CCOCC2)C1=O (centres unmarked) [Example 31, 2-[2-Methyl-4-(2-methyl-[1,3′]bipyrrolidinyl-1′-yl)-phenyl]-8-oxa-2-aza-spiro[4.5]decan-1-one] | 6.2 | −28
Cc1cc(N2CC[C@@H](N3CCC[C@H]3C)C2)ccc1N1CCCC2(CCOCC2)C1=O [Example 32, 2-[2-Methyl-4-((2R,3′R)-2-methyl-[1,3′]bipyrrolidinyl-1′-yl)-phenyl]-9-oxa-2-aza-spiro[5.5]undecan-1-one] | 11 | −15
Cc1cc(N2CC[C@@H](N3CCC[C@@H]3C)C2)ccc1N1CCCC2(CCOCC2)C1=O [Example 33] | 1.4 | −19
C[C@H]1CCCN1[C@H]1CCN(c2ccc(N3CCCC4(CCOCC4)C3=O)cc2)C1 [Example 37, 2-[4-((2S,3′S)-2-Methyl-[1,3′]bipyrrolidinyl-1′-yl)-phenyl]-9-oxa-2-aza-spiro[5.5]undecan-1-one] | 0.1 | −20
C[C@@H]1CCCN1[C@H]1CCN(c2ccc(N3CCCC4(CCOCC4)C3=O)c(F)c2)C1 [Example 38, 2-[2-Fluoro-4-((2R,3′S)-2-Methyl-[1,3′]bipyrrolidinyl-1′-yl)-phenyl]-9-oxa-2-aza-spiro[5.5]undecan-1-one] | 1.3 | −22
C[C@@H]1CCCN1[C@@H]1CCN(c2ccc(N3CCCC4(CCOCC4)C3=O)c(F)c2)C1 [Example 39, 2-[2-Fluoro-4-((2R,3′R)-2-Methyl-[1,3′]bipyrrolidinyl-1′-yl)-phenyl]-9-oxa-2-aza-spiro[5.5]undecan-1-one] | 0.75 | −13
C[C@H]1CCCN1[C@@H]1CCN(c2ccc(N3CCCC4(CCOCC4)C3=O)c(F)c2)C1 [Example 40, 2-[2-Fluoro-4-((2S,3′R)-2-Methyl-[1,3′]bipyrrolidinyl-1′-yl)-phenyl]-9-oxa-2-aza-spiro[5.5]undecan-1-one] | 0.09 | −18

The next lines start with results.

Ki [1] [nM] | SMILES | Inverse Agonism: % inhibition of Basal GTPγS binding in Rhesus H3 (rhesus H3 receptor) [%]
4.3 | Cc1cc(N2CC[C@@H](N3CCC[C@@H]3C)C2)ccc1N1CCC2(CCOCC2)C1=O [Example 30] | −29
1.7 | C[C@@H]1CCCN1[C@H]1CCN(c2ccc(N3CCCC4(CCOCC4)C3=O)cc2)C1 [Example 34, 2-[4-((2R,3′S)-2-Methyl-[1,3′]bipyrrolidinyl-1′-yl)-phenyl]-9-oxa-2-aza-spiro[5.5]undecan-1-one] | −12
0.7 | C[C@@H]1CCCN1[C@@H]1CCN(c2ccc(N3CCCC4(CCOCC4)C3=O)cc2)C1 [Example 35, 2-[4-((2R,3′R)-2-Methyl-[1,3′]bipyrrolidinyl-1′-yl)-phenyl]-9-oxa-2-aza-spiro[5.5]undecan-1-one] | −13
0.26 | C[C@H]1CCCN1[C@@H]1CCN(c2ccc(N3CCCC4(CCOCC4)C3=O)cc2)C1 [Example 36, 2-[4-((2S,3′R)-2-Methyl-[1,3′]bipyrrolidinyl-1′-yl)-phenyl]-9-oxa-2-aza-spiro[5.5]undecan-1-one] | −10

— patent US8383814B2, “Substituted tetrahydropyran spiro pyrrolidinone and piperidinone, preparation and therapeutic use thereof” (Sanofi, priority 2008, dated 2013)
